Test results reported in patent US20250115595A1, “INHIBITORS OF HYPOXIA-INDUCIBLE FACTORS” (The Johns Hopkins University, priority 2021, published 2025).
Entries after “also recorded” stand apart in the source; their conditions may differ.

How the values were obtained:
[1] = system: tumor immune microenvironment; experiment: Flow cytometry of immune cell populations in Hepa1-6 tumors; assay type: in vivo, mouse; details: 200-mm3 tumors, within 8 days
Description: To analyze the mechanism by which 32-134D increased the response to anti-Pd1 therapy, tumor-bearing mice were treated with 32-134D or vehicle, and immune cell populations in well-established 200-mm^3 tumors were analyzed by flow cytometry.
Hepa1-6 tumors were digested with collagenase (1 mg/ml) at 37° C. for 30 minutes and the resulting single cell suspension was passed through a 70-μm cell strainer and washed twice with cold PBS. Cells were resuspended in FC buffer for subsequent flow cytometry analysis. […]

STZ mice = experiment: STZ diabetic mouse model, intraocular dosing; assay type: in vivo; details: single intraocular injection 70 ng, 5 days
Description: The efficacy of 32-134D following intraocular administration with 70 ng, as well as a lower dose (14 ng), in OIR mice at P12 (J. Zhang et al., J Clin Invest 131 (2021)) was determined.
The efficacy of 32-134D following IVT administration was also evaluated in the STZ model. STZ mice that were hyperglycemic for 6 months were treated with a single intraocular injection with 70 ng 32-134D in 1 ul or with vehicle (DMSO) control. 5 days later vascular hyperpermeability was assessed by examining leakage of intravascular Evans blue dye in STZ mice.
Vascular permeability by Evans blue tracer method: Mice were anesthetized with a mixture of ketamine (50 mg/kg) and xylazine (5 mg/kg) and subjected to Evans blue (Sigma) (50 mg/kg) perfusion by penile vein injection. […] Images were captured by Zeiss fluorescent microscope or confocal microscopy and fluorescence quantified by image J software (NIH). […] Blinded quantification of the number of leaking vessels was performed by manual counting major leakage from capillaries from retinas of each group. Non-capillary artifactual Evans blue or FITC-dextran leakage due to flat mount processing as well as minor leakages were not included in the quantitation. […] Random fields were chosen from retinas where leakages were absent to determine baseline fluorescence that arise from capillaries. For quantification, high magnifications (20×) images were taken. […]

Question: How did the “percentage of Cd8+Ifng+ activated CTLs and Nk1.1+Cd3−Cd314+ activated NK cells” value [1] turn out when `Brc1ccc2c(-c3csc(-c4c[nH]c5c(Br)cccc45)n3)c[nH]c2c1` [Compound 32-134D, 4-(6-bromo-1H-indol-3-yl)-2-(7-bromo-1H-indol-3-yl)thiazole] was run?
Answer: significantly increased

Question: What about the “percentage of Cd11b+F4/80+ tumor-associated macrophages and Cd11b+Ly6g+Ly6c− myeloid-derived suppressor cells” value [1] of the same compound?
Answer: decrease

Question: And the “vascular hyperpermeability (Evans blue leakage)” value (STZ mice)?
Answer: effectively inhibited; also recorded: significant decrease
